The text below walks through data of ChEMBL document CHEMBL4431316, “New 6-Aminoquinoxaline Derivatives with Neuroprotective Effect on Dopaminergic Neurons in Cellular and Animal Parkinson Disease Models” (J Med Chem, 2016).

The species named for the test is Rattus norvegicus. Nature of the test: Neuroprotective activity in Sprague-Dawley rat DA neuron death PD model assessed as inhibition of calcium mobilization at 50 uM after 10 days in presence of N-type voltage gated calcium channel blocker omega-conotoxin M7A. It counts as functional. (In general: A change in cytosolic calcium serves as a functional read-out for many receptors and channels.)

SMILES strings stand for the structures. The source made the active and inactive calls. No cut-off for these calls is given here.

As to `Nc1ccc2ncc(-c3ccccc3)nc2c1`, the inhibition result was “Active”.
